Test results: PubChem BioAssay (NCI)
Several values for one entry are separate records, joined by “and”; a condition that tells them apart may be missing. Equal entries are not always repeated.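 Dose response: 5 concentrations. Exposure: 48 h. Format: 96-well plates. Endpoint: linear interpolation; highest concentration if not reached. Abbreviation: GI50, concentration required for 50% inhibition of growth. TGI is the concentration that stops growth completely.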

Assays:
Assay in all cases: NCI-60 cell line screen, 48 h
[1] = tested on: HOP-18 NSCLC
[2] = tested on: DLD-1 colon
[3] = tested on: DMS 114 small cell lung
[4] = tested on: LXFL 529 NSCLC
[5] = tested on: KM20L2 colon
[6] = tested on: PC-3 prostate
[7] = tested on: NCI/ADR-RES ovarian
[8] = tested on: HS 578T breast
[9] = tested on: MCF7 breast
[10] = tested on: MDA-MB-435

| SMILES | TGI [1] | TGI [2] | TGI [3] | TGI [4] | TGI [5] | GI50 [1] | GI50 [2] | GI50 [3] | GI50 [5] | TGI [6] | TGI [7] | TGI [8] | TGI [9] | TGI [10] |
| --- | --- | --- | --- | --- | --- | --- | --- | --- | --- | --- | --- | --- | --- | --- |
| CC1CC(c2ccccc2)=Nc2ccccc2S1(=O)=O (stereo not drawn) | 30 µM | 28.4 µM | 45.8 µM | 28.6 µM | 31.7 µM |  |  |  |  |  |  |  |  |  |
| CCN(CC)CCn1c2c3ccccc3ccc2c2oc(=O)c3ccccc3c21 | > 100 µM | > 100 µM | > 100 µM | > 100 µM | > 100 µM |  |  |  |  |  |  |  |  |  |
| CC(=O)O/N=C/c1ncccc1CO | > 100 µM | > 100 µM | > 100 µM | > 100 µM | > 100 µM |  |  |  |  |  |  |  |  |  |
| CN1CCN(CCSC2Cc3cc(Cl)ccc3Sc3ccccc32)CC1 (stereo not drawn) | 22.6 µM | 10.4 µM | 11.2 µM | 7.34 µM | 4.08 µM |  |  |  |  |  |  |  |  |  |
| COc1cc(C2c3cc4c(cc3[C@@H](Nc3ccc(C(=O)O)cc3)C3COC(=O)[C@H]23)OCO4)cc(OC)c1O (stereo partly drawn) | > 100 µM | 54.9 µM and > 17.5 µM | 47.8 µM and > 17.5 µM | 39.8 µM and > 17.5 µM | > 100 µM | 16.8 µM and 5.25 µM | 17.2 µM and 6.86 µM | 13.9 µM and 5.44 µM | 36.8 µM and > 17.5 µM |  |  |  |  |  |
| COc1ccc(NC(=O)C2C(=O)N(c3ccc(OC)cc3)C(=O)/C2=N/O)cc1 (stereo not drawn) | 44.4 µM | > 100 µM | > 100 µM | > 75 µM | > 100 µM |  |  |  |  |  |  |  |  |  |
| Cc1nc2ccc(C(F)(F)F)cc2nc1Nc1ccc(Cl)c(Cl)c1 | 29.5 µM |  |  | 20.6 µM | 13.2 µM |  |  |  |  |  |  |  |  |  |
| Cc1nc(N)sc1C(=O)/C=C/c1ccc(/C=C/C(=O)c2sc(NC(=O)CCCCCCCCC(=O)Nc3nc(C)c(C(=O)/C=C/c4ccc(/C=C/C(=O)c5sc(N)nc5C)cc4)s3)nc2C)cc1 | > 100 µM | > 100 µM | > 100 µM | > 100 µM | > 100 µM |  |  |  |  |  |  |  |  |  |
| CC1(C)C(=O)N(c2ccccc2)C(=O)N1c1nc2ccccc2[nH]1 | > 100 µM | > 100 µM | > 100 µM | > 100 µM | > 100 µM |  |  |  |  |  |  |  |  |  |
| NC(=O)c1c[se]c(C2OC(CO)C(O)C2O)n1 (stereo not drawn) | > 100 µM | > 100 µM | > 100 µM | > 100 µM |  |  |  |  |  | > 100 µM | > 100 µM | > 100 µM | > 100 µM | > 100 µM |
| CC(=O)O[C@H]1C(N(C)C(=O)c2ccccc2)CC[C@]2(C)C3CC[C@@]4(C)C(CC(O)[C@@H]4C(C)N(C)C)[C@@H]3CCC12 (stereo partly drawn) | > 100 µM | > 100 µM | > 100 µM | > 100 µM | > 100 µM |  |  |  |  |  |  |  |  |  |
| O=C(C(O)c1cn(Cc2ccccc2)c2ccccc12)N1CCCCC1 (stereo not drawn) | 90 µM | > 100 µM | > 100 µM | > 100 µM | > 100 µM |  |  |  |  |  |  |  |  |  |
| CCOc1ccccc1NC(=O)/C=C1\NC(=O)CS1 | > 100 µM | > 100 µM | > 100 µM | > 100 µM | > 100 µM |  |  |  |  |  |  |  |  |  |
| Cc1cc2c(CC(=O)O)[nH]nc2c(C(=O)O)c1C | > 100 µM | > 100 µM |  | > 100 µM | > 100 µM |  |  |  |  |  |  |  |  |  |
| C=CCCCCCCCCCCCC1CCC(CC)N1 (stereo not drawn) | 25.2 µM | 15.5 µM | 14.7 µM | 26 µM | 15.8 µM |  |  |  |  |  |  |  |  |  |
| N#CC(C#N)=C(N)/C(C#N)=C\c1ccnc2ccccc12 | > 100 µM | 27.5 µM | 38.8 µM | 54.3 µM |  |  |  |  |  |  |  |  |  |  |
| COc1ccc(-c2c(C3=NCCN3)nnn2-c2ccccc2)cc1 | > 100 µM | > 100 µM | > 100 µM | > 100 µM | > 100 µM |  |  |  |  |  |  |  |  |  |
| COC(=O)c1c(-c2ccccc2)cc2c3cc(-c4ccccc4)c(C(=O)OC)n3c3ccccc3n12 | > 100 µM | > 100 µM | > 100 µM | > 100 µM | > 100 µM |  |  |  |  |  |  |  |  |  |
| COc1cc(-c2cc(=O)c3cc4c(cc3[nH]2)OCO4)cc(OC)c1OC | > 100 µM | > 100 µM | > 100 µM | > 100 µM | > 100 µM |  |  | 83.8 µM | > 100 µM |  |  |  |  |  |
| CC(C)=CC(C(O)c1ccccc1)S(=O)(=O)c1nccn1C (stereo not drawn) | > 100 µM | > 100 µM | > 100 µM | > 100 µM | > 100 µM |  |  |  |  |  |  |  |  |  |
| CCOC(=O)CCC(=O)C1c2cccc(O)c2C(=O)c2c(O)cccc21 | 3.33 µM | 3.21 µM | 1.65 µM |  |  |  |  |  |  |  |  |  |  |  |
| NC(N)=N/N=C(/c1nc2ccc([N+](=O)[O-])cc2[nH]c1=O)C(O)c1ccco1 (stereo not drawn) | > 100 µM | > 100 µM | > 100 µM | > 100 µM | > 100 µM |  |  |  |  |  |  |  |  |  |
| O=c1cc(-c2ccccc2)[nH]c2cc(Cl)cc(Cl)c12 | > 100 µM | > 100 µM | > 100 µM | > 100 µM |  |  |  |  |  |  |  |  |  |  |
| C=CCc1cc2cccc(OC)c2oc1=O | > 100 µM | > 100 µM | > 100 µM | > 100 µM | > 100 µM |  |  |  |  |  |  |  |  |  |
| O=C1C(Br)=C[C@H]2C3C=CC(Br)(C3=O)[C@@H]12 (stereo partly drawn) | > 100 µM | 20.5 µM | 28.3 µM | 21.8 µM | 18.2 µM |  |  |  |  |  |  |  |  |  |
| CCN(CC)CCC1CC/C(=C\c2ccc(OC)cc2)C1=O (stereo not drawn) | > 100 µM | > 100 µM | > 100 µM | > 100 µM | 78.3 µM |  |  |  |  |  |  |  |  |  |
| COP1(=O)CC2C(Cl)(Cl)C2(C)C1 (stereo not drawn) | > 100 µM | > 100 µM | > 100 µM | > 100 µM | > 100 µM |  |  |  |  |  |  |  |  |  |
